Test results published in PMC5622171 (Nature Communications, 2017).

Assays:
Assay in all cases: KINOMEscan kinase profiling
Format in all cases: binding
PIK3CB = molecular target: T1, PIK3CB (Homo sapiens, UniProt P42338); details: read-out: %Inhibition by 10 μM SPA70
T1 construct: purchased DiscoverX (Ambit Biosciences) KINOMEscan
Procedure, shortened: (§1)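 KINOMEscan profiling followed a published protocol. Kinases whose inhibition exceeded a set cut-off were then tested in a dilution series beginning at 30 µM.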

DRAK1 = molecular target: T2, DRAK1 (Homo sapiens, UniProt Q9UEE5); details: read-out: %Inhibition by 10 μM SPA70
T2 construct: purchased DiscoverX (Ambit Biosciences) KINOMEscan
Procedure, shortened: as §1

LIMK2 = molecular target: T3, LIMK2 (Homo sapiens, UniProt P53671); details: read-out: %Inhibition by 10 μM SPA70
T3 construct: purchased DiscoverX (Ambit Biosciences) KINOMEscan
Procedure, shortened: as §1

PIK4CB = molecular target: T4, PIK4CB (Homo sapiens, UniProt Q9UBF8); details: read-out: %Inhibition by 10 μM SPA70
T4 construct: purchased DiscoverX (Ambit Biosciences) KINOMEscan
Procedure, shortened: as §1

ERK1 = molecular target: T5, ERK1 (Homo sapiens, UniProt P27361); details: read-out: %Inhibition by 10 μM SPA70
T5 construct: purchased DiscoverX (Ambit Biosciences) KINOMEscan
Procedure, shortened: as §1

AKT3 = molecular target: T6, AKT3 (Homo sapiens, UniProt Q9Y243); details: read-out: %Inhibition by 10 μM SPA70
T6 construct: purchased DiscoverX (Ambit Biosciences) KINOMEscan
Procedure, shortened: as §1

SLK = molecular target: T7, SLK (Homo sapiens, UniProt Q9H2G2); details: read-out: %Inhibition by 10 μM SPA70
T7 construct: purchased DiscoverX (Ambit Biosciences) KINOMEscan
Procedure, shortened: as §1

LOK = molecular target: T8, LOK (Homo sapiens, UniProt O94804)
T8 construct: purchased DiscoverX (Ambit Biosciences) KINOMEscan
T8 sequence (O94804 whole entry): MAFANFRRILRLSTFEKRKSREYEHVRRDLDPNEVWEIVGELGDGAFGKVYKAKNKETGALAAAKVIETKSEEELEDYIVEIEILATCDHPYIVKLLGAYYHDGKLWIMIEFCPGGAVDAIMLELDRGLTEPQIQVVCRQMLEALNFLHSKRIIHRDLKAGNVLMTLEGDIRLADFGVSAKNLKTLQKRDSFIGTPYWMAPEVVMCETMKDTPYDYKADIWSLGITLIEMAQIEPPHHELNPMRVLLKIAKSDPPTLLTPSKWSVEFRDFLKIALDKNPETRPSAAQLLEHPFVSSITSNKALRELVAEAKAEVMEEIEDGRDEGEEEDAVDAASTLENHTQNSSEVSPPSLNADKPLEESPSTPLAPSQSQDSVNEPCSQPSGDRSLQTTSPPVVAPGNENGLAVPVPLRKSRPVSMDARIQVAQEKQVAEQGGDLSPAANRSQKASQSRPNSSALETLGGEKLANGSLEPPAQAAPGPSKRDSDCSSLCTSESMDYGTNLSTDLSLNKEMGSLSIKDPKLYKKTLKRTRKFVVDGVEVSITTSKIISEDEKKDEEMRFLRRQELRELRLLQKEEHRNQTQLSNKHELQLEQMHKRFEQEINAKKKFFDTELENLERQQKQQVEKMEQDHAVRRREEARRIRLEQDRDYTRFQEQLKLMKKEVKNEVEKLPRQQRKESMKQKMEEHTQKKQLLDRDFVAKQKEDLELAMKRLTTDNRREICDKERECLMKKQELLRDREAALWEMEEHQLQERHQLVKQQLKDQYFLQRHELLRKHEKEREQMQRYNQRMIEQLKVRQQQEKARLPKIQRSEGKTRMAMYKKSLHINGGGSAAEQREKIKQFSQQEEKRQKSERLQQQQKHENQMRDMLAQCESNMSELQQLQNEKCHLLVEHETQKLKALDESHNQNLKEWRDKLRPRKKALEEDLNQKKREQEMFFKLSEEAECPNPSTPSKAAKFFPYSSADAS
Procedure, shortened: as §1

DYRK1B = molecular target: T9, DYRK1B (Homo sapiens, UniProt Q9Y463); details: read-out: %Inhibition by 10 μM SPA70
T9 construct: purchased DiscoverX (Ambit Biosciences) KINOMEscan
Procedure, shortened: as §1

SBK1 = molecular target: T10, SBK1 (Homo sapiens, UniProt Q52WX2); details: read-out: %Inhibition by 10 μM SPA70
T10 construct: purchased DiscoverX (Ambit Biosciences) KINOMEscan
Procedure, shortened: as §1

FGR = molecular target: T11, FGR (Homo sapiens, UniProt P09769); details: read-out: %Inhibition by 10 μM SPA70
T11 construct: purchased DiscoverX (Ambit Biosciences) KINOMEscan
Procedure, shortened: as §1

FGFR3 = molecular target: T12, FGFR3 (Homo sapiens, UniProt P22607); details: read-out: %Inhibition by 10 μM SPA70
T12 construct: purchased DiscoverX (Ambit Biosciences) KINOMEscan
Procedure, shortened: as §1

GRK4 = molecular target: T13, GRK4 (Homo sapiens, UniProt P32298); details: read-out: %Inhibition by 10 μM SPA70
T13 construct: purchased DiscoverX (Ambit Biosciences) KINOMEscan
Procedure, shortened: as §1

MKNK1 = molecular target: T14, MKNK1 (Homo sapiens, UniProt Q9BUB5); details: read-out: %Inhibition by 10 μM SPA70
T14 construct: purchased DiscoverX (Ambit Biosciences) KINOMEscan
T14 sequence (Q9BUB5 whole entry): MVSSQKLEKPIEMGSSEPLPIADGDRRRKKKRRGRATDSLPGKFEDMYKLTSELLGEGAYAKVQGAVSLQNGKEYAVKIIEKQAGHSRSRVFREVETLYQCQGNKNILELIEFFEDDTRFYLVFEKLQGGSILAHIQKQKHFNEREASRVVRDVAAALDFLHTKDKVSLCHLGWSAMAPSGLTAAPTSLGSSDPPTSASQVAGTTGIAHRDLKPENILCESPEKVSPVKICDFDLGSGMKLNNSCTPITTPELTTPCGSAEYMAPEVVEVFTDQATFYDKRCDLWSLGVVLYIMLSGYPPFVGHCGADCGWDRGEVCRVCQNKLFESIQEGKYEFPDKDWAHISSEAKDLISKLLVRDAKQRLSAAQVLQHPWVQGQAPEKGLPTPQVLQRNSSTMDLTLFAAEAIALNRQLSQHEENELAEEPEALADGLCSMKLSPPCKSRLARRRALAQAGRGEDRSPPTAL
Procedure, shortened: as §1

CSNK1E = molecular target: T15, CSNK1E (Homo sapiens, UniProt P49674); details: read-out: %Inhibition by 10 μM SPA70
T15 construct: purchased DiscoverX (Ambit Biosciences) KINOMEscan
Procedure, shortened: as §1

DAPK1 = molecular target: T16, DAPK1 (Homo sapiens, UniProt P53355); details: read-out: %Inhibition by 10 μM SPA70
T16 construct: purchased DiscoverX (Ambit Biosciences) KINOMEscan
Procedure, shortened: as §1

TESK1 = molecular target: T17, TESK1 (Homo sapiens, UniProt Q15569); details: read-out: %Inhibition by 10 μM SPA70
T17 construct: purchased DiscoverX (Ambit Biosciences) KINOMEscan
Procedure, shortened: as §1

MST2 = molecular target: T18, MST2 (Homo sapiens, UniProt Q13188)
T18 construct: purchased Ambit Biosciences, now part of DiscoveryX
T18 sequence (Q13188 whole entry): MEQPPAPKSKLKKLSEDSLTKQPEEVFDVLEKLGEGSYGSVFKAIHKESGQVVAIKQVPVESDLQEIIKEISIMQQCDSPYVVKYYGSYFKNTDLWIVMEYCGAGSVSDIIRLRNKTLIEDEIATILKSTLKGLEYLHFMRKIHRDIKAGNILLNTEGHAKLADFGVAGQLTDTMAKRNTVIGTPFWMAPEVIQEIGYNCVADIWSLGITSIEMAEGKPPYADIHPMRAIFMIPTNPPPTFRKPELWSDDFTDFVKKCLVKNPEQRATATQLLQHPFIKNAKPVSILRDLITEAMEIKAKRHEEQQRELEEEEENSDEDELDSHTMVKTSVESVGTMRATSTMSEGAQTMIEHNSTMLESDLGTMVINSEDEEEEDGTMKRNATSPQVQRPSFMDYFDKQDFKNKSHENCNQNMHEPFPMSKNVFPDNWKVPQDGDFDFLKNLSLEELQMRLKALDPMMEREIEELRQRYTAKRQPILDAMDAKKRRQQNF
Procedure, shortened: as §1

GRK1 = molecular target: T19, GRK1 (Homo sapiens, UniProt Q15835); details: read-out: %Inhibition by 10 μM SPA70
T19 construct: purchased DiscoverX (Ambit Biosciences) KINOMEscan
Procedure, shortened: as §1

PIK3CG = molecular target: T20, PIK3CG (Homo sapiens, UniProt P48736); details: read-out: %Inhibition by 10 μM SPA70
T20 construct: purchased DiscoverX (Ambit Biosciences) KINOMEscan
Procedure, shortened: as §1

ACVR1 = molecular target: T21, ACVR1 (Homo sapiens, UniProt Q04771); details: read-out: %Inhibition by 10 μM SPA70
T21 construct: purchased DiscoverX (Ambit Biosciences) KINOMEscan
Procedure, shortened: as §1

ULK1 = molecular target: T22, ULK1 (Homo sapiens, UniProt O75385)
T22 construct: purchased DiscoverX (Ambit Biosciences) KINOMEscan
Procedure, shortened: as §1

MINK = molecular target: T23, MINK (Homo sapiens, UniProt Q8N4C8); details: read-out: %Inhibition by 10 μM SPA70
T23 construct: purchased DiscoverX (Ambit Biosciences) KINOMEscan
Procedure, shortened: as §1

CSK = molecular target: T24, CSK (Homo sapiens, UniProt P41240)
T24 construct: purchased DiscoverX (Ambit Biosciences) KINOMEscan
Procedure, shortened: as §1

DMPK = molecular target: T25, DMPK (Homo sapiens, UniProt Q09013); details: read-out: %Inhibition by 10 μM SPA70
T25 construct: purchased DiscoverX (Ambit Biosciences) KINOMEscan
Procedure, shortened: as §1

EPHA3 = molecular target: T26, EPHA3 (Homo sapiens, UniProt P29320); details: read-out: %Inhibition by 10 μM SPA70
T26 construct: purchased DiscoverX (Ambit Biosciences) KINOMEscan
Procedure, shortened: as §1

IKK-alpha = molecular target: T27, IKK-alpha (Homo sapiens, UniProt O15111); details: read-out: %Inhibition by 10 μM SPA70
T27 construct: purchased DiscoverX (Ambit Biosciences) KINOMEscan
T27 sequence (O15111 whole entry): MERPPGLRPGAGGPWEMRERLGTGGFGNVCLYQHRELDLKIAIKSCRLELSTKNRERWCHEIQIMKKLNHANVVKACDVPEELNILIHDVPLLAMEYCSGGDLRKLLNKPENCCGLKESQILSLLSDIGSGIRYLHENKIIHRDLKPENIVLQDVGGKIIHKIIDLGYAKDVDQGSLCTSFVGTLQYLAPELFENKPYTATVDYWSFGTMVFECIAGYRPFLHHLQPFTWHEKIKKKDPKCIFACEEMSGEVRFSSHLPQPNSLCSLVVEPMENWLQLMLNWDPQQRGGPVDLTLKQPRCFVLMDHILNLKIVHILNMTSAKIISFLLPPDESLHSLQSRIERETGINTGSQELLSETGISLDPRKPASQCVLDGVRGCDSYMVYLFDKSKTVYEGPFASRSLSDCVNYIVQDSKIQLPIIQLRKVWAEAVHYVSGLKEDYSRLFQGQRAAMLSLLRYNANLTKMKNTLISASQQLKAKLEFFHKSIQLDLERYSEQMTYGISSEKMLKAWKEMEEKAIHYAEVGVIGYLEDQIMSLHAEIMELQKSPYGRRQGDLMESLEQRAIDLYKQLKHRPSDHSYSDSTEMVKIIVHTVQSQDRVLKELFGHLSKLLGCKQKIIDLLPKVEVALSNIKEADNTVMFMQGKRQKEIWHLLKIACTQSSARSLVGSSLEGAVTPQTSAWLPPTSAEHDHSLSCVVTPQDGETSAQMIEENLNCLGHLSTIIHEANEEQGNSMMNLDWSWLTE
Procedure, shortened: as §1

HIPK1 = molecular target: T28, HIPK1 (Homo sapiens, UniProt Q86Z02); details: read-out: %Inhibition by 10 μM SPA70
T28 construct: purchased DiscoverX (Ambit Biosciences) KINOMEscan
T28 sequence (Q86Z02 whole entry): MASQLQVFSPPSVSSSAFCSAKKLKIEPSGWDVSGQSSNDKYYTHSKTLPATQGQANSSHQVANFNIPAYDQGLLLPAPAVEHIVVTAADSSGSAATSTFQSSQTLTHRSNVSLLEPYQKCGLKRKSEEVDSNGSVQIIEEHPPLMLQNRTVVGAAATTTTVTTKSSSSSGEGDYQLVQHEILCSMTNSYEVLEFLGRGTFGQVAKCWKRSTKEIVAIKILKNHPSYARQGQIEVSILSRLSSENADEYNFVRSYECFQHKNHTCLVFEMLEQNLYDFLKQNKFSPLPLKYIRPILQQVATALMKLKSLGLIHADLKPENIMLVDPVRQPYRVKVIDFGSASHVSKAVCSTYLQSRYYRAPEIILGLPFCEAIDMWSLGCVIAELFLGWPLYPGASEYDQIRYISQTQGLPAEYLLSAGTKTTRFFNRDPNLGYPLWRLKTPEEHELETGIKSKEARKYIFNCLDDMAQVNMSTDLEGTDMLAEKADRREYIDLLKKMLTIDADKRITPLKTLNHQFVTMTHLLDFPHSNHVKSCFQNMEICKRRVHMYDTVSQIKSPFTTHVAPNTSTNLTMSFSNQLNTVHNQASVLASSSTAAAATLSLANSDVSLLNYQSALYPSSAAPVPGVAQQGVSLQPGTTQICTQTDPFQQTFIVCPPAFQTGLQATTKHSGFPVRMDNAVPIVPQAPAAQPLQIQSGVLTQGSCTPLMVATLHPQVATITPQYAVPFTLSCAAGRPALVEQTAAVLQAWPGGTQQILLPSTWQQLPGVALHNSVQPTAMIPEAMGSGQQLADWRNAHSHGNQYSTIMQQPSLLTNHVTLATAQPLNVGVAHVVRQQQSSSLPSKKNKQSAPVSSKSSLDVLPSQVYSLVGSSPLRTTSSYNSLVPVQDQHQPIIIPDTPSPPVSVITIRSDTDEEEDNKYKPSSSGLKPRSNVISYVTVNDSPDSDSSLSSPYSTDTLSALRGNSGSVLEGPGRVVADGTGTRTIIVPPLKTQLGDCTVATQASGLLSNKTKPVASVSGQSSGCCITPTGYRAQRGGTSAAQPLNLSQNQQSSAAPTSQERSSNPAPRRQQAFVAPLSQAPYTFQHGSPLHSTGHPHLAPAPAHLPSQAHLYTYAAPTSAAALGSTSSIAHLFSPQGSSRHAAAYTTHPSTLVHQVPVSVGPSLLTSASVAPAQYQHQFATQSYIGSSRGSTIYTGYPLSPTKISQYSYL
Procedure, shortened: as §1

[1] = molecular target: T29, RSK4(Kin.Dom.2-C-terminal) (Homo sapiens, UniProt Q9UK32)
T29 construct: RSK4(Kin.Dom.2-C-terminal); purchased DiscoverX (Ambit Biosciences) KINOMEscan
Procedure, shortened: as §1

YSK1 = molecular target: T30, YSK1 (Homo sapiens, UniProt O00506); details: read-out: %Inhibition by 10 μM SPA70
T30 construct: purchased DiscoverX (Ambit Biosciences) KINOMEscan
T30 sequence (O00506 whole entry): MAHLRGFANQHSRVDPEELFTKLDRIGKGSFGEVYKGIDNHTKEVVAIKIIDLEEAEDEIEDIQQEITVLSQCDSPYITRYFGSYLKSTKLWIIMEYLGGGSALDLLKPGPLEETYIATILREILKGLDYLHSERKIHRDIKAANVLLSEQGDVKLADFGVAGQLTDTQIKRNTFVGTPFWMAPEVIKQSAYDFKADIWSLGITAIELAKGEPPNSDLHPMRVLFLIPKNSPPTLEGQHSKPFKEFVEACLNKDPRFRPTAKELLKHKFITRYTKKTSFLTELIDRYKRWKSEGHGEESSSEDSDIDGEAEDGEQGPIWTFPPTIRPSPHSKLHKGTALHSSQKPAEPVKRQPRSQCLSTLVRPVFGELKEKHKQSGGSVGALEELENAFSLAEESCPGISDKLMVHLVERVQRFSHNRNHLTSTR
Procedure, shortened: as §1

NIM1 = molecular target: T31, NIM1 (Homo sapiens, UniProt Q8IY84); details: read-out: %Inhibition by 10 μM SPA70
T31 construct: purchased DiscoverX (Ambit Biosciences) KINOMEscan
Procedure, shortened: as §1

MAP4K5 = molecular target: T32, MAP4K5 (Homo sapiens, UniProt Q9Y4K4); details: read-out: %Inhibition by 10 μM SPA70
T32 construct: purchased DiscoverX (Ambit Biosciences) KINOMEscan
Procedure, shortened: as §1

MARK2 = molecular target: T33, MARK2 (Homo sapiens, UniProt Q7KZI7); details: read-out: %Inhibition by 10 μM SPA70
T33 construct: purchased DiscoverX (Ambit Biosciences) KINOMEscan
Procedure, shortened: as §1

WEE2 = molecular target: T34, WEE2 (Homo sapiens, UniProt P0C1S8); details: read-out: %Inhibition by 10 μM SPA70
T34 construct: purchased DiscoverX (Ambit Biosciences) KINOMEscan
Procedure, shortened: as §1

MAP3K2 = molecular target: T35, MAP3K2 (Homo sapiens, UniProt Q9Y2U5); details: read-out: %Inhibition by 10 μM SPA70
T35 construct: purchased DiscoverX (Ambit Biosciences) KINOMEscan
Procedure, shortened: as §1

PCTK1 = molecular target: T36, PCTK1 (Homo sapiens, UniProt Q00536); details: read-out: %Inhibition by 10 μM SPA70
T36 construct: purchased DiscoverX (Ambit Biosciences) KINOMEscan
Procedure, shortened: as §1

PIP5K2C = molecular target: T37, PIP5K2C (Homo sapiens, UniProt Q8TBX8); details: read-out: %Inhibition by 10 μM SPA70
T37 construct: purchased DiscoverX (Ambit Biosciences) KINOMEscan
Procedure, shortened: as §1

ERK3 = molecular target: T38, ERK3 (Homo sapiens, UniProt Q16659); details: read-out: %Inhibition by 10 μM SPA70
T38 construct: purchased DiscoverX (Ambit Biosciences) KINOMEscan
Procedure, shortened: as §1

IRAK1 = molecular target: T39, IRAK1 (Homo sapiens, UniProt P51617); details: read-out: %Inhibition by 10 μM SPA70
T39 construct: purchased DiscoverX (Ambit Biosciences) KINOMEscan
Procedure, shortened: as §1

EPHA8 = molecular target: T40, EPHA8 (Homo sapiens, UniProt P29322); details: read-out: %Inhibition by 10 μM SPA70
T40 construct: purchased DiscoverX (Ambit Biosciences) KINOMEscan
Procedure, shortened: as §1

GSK3A = molecular target: T41, GSK3A (Homo sapiens, UniProt P49840)
T41 construct: purchased DiscoverX (Ambit Biosciences) KINOMEscan
T41 sequence (P49840 whole entry): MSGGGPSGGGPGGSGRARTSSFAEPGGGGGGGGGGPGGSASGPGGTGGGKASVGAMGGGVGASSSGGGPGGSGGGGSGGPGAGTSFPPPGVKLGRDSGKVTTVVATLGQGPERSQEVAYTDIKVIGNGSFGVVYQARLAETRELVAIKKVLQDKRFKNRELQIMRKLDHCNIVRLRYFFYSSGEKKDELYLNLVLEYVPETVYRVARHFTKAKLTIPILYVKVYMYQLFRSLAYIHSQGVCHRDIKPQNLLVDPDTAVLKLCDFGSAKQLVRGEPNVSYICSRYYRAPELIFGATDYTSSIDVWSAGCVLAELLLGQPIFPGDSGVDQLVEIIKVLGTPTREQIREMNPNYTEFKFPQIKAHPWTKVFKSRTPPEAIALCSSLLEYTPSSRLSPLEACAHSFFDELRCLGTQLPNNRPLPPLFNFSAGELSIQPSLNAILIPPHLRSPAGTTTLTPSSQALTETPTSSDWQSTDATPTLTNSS
Procedure, shortened: as §1

[2] = read-out: %Inhibition by 10 μM SPA70

SMILES: COc1ccc(OC)c(-n2nnc(S(=O)(=O)c3ccc(C(C)(C)C)cc3)c2C)c1 [SPA70]
- inhibition at 10 µM (PIK3CB): 8%
- inhibition at 10 µM (DRAK1): 7%
- inhibition at 10 µM (LIMK2): 2%
- inhibition at 10 µM (PIK4CB): 27%
- inhibition at 10 µM (ERK1): 0%
- inhibition at 10 µM (AKT3): 0%
- inhibition at 10 µM (SLK): 9%
- %Inhibition by 10 μM SPA70 (LOK): 0%
- inhibition at 10 µM (DYRK1B): 0%
- inhibition at 10 µM (SBK1): 0%
- inhibition at 10 µM (FGR): 6%
- inhibition at 10 µM (FGFR3): 0%
- inhibition at 10 µM (GRK4): 0%
- inhibition at 10 µM (MKNK1): 44%
- inhibition at 10 µM (CSNK1E): 0%
- inhibition at 10 µM (DAPK1): 10%
- inhibition at 10 µM (TESK1): 0%
- Kd (MST2; 11-point 3-fold serial dilutions starting from 30 µM): > 30 µM
- inhibition at 10 µM (MST2; [2]): 62%
- inhibition at 10 µM (GRK1): 0%
- inhibition at 10 µM (PIK3CG): 9%
- inhibition at 10 µM (ACVR1): 0%
- %Inhibition by 10 μM SPA70 (ULK1): 5%
- inhibition at 10 µM (MINK): 0%
- %Inhibition by 10 μM SPA70 (CSK): 9%
- inhibition at 10 µM (DMPK): 0%
- inhibition at 10 µM (EPHA3): 26%
- inhibition at 10 µM (IKK-alpha): 10%
- inhibition at 10 µM (HIPK1): 32%
- %Inhibition by 10 μM SPA70 [1]: 16%
- inhibition at 10 µM (YSK1): 2%
- inhibition at 10 µM (NIM1): 4%
- inhibition at 10 µM (MAP4K5): 0%
- inhibition at 10 µM (MARK2): 16%
- inhibition at 10 µM (WEE2): 1%
- inhibition at 10 µM (MAP3K2): 15%
- inhibition at 10 µM (PCTK1): 4%
- inhibition at 10 µM (PIP5K2C): 10%
- inhibition at 10 µM (ERK3): 11%
- inhibition at 10 µM (IRAK1): 0%
- inhibition at 10 µM (EPHA8): 13%
- %Inhibition by 10 μM SPA70 (GSK3A): not inhibited
- inhibition at 10 µM (GSK3A; [2]): 0%
